Data from ChEMBL document CHEMBL1201862, “PubChem BioAssay data set” (2004).
Calls of active or inactive are those of the source.

How the values were obtained:
[1] = target: Sphingosine 1-phosphate receptor 2 (Homo sapiens, UniProt O95136); test: Late stage counterscreen assay for S1P4 antagonists: Fluorescence dose response cell-based screening assay for antagonists of the Sphingosine 1-Phosphate Receptor 2 (S1P2). [Related pubchem assays (depositor defined):AID1510, AID1524, AID1692, AID1853, AID2332, AID489009, AID489017]; assay type: functional
[2] = Late-stage results from the probe development effort to identify antagonists of the Sphingosine 1-Phosphate Receptor 4 (S1P4): luminescence-based cell-based dose response assay to determine cytotoxicity of antagonist compounds. [Related pubchem assays (depositor defined):AID1510, AID1524, AID1564, AID1692, AID1821, AID1853, AID2332, AID2346, AID2349, AID2350, AID2351, AID2354]; assay type: functional
[3] = target: Sphingosine 1-phosphate receptor 5 (Homo sapiens, UniProt Q9H228); test: Late stage counterscreen assay for S1P4 antagonists: Fluorescence dose response cell-based screening assay for antagonists of the Sphingosine 1-Phosphate Receptor 5 (S1P5). [Related pubchem assays (depositor defined):AID1510, AID1524, AID1692, AID1853, AID2332, AID489009, AID489017]; assay type: functional
[4] = target: Sphingosine 1-phosphate receptor 3 (Homo sapiens, UniProt Q99500); test: Late stage counterscreen assay for S1P4 antagonists: Fluorescence dose response cell-based screening assay for antagonists of the Sphingosine 1-Phosphate Receptor 3 (S1P3). [Related pubchem assays (depositor defined):AID1510, AID1524, AID1692, AID1853, AID2332, AID489009, AID489017]; assay type: functional
[5] = target: Sphingosine 1-phosphate receptor 1 (Homo sapiens, UniProt P21453); test: Late stage counterscreen assay for S1P4 antagonists: Fluorescence dose response cell-based screening assay for antagonists of the Sphingosine 1-Phosphate Receptor 1 (S1P1). [Related pubchem assays (depositor defined):AID1510, AID1524, AID1692, AID1853, AID2332, AID489009, AID489017]; assay type: functional
[6] = target: T1, Intestinal-type alkaline phosphatase (Homo sapiens, UniProt P09923); test: activation of human intestinal alkaline phosphatase – biochemical, luminescent, uHTS hits, set 2, dose response (AID 488817); assay type: functional;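 further: potency of activators that raise enzyme activity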
HEK293 = test: cells; settings: Homo sapiens;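 further: cells exposed to compound for 14 hours overnight before viability readout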
[7] = target: Nucleotide-binding oligomerization domain-containing protein 1 (Homo sapiens, UniProt Q9Y239); test: blockers of NOD1 pathway activity – revised, SAR follow-up (AID 2333); assay type: functional
[8] = target: Intestinal-type alkaline phosphatase (Mus musculus, UniProt P24822); test: PubChem AID 488874; assay type: functional
[9] = target: Nucleotide-binding oligomerization domain-containing protein 2 (Homo sapiens, UniProt Q9HC29); test: PubChem AID 2334; assay type: functional
[10] = target: T1, Intestinal-type alkaline phosphatase; test: human intestinal alkaline phosphatase activators, dose response, biochemical, luminescence, uHTS hits (AID 463120); assay type: functional
Tumor necrosis factor = Tumor necrosis factor (Homo sapiens, UniProt P01375); test: analog potency on TNFa NF-kB signaling – cell-based, revised, SAR follow-up (AID 2337); assay type: functional
[11] = target: T2, Alkaline phosphatase, tissue-nonspecific isozyme (Homo sapiens, UniProt P05186); test: activation of tissue-nonspecific alkaline phosphatase – biochemical, TNAP isozyme, human IAP uHTS hits, selectivity assay for human IAP activator project, dose response (AID 488886); assay type: functional;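 further: potency of compounds raising TNAP activity as a selectivity check on IAP activators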
T2 sequence (P05186 whole entry): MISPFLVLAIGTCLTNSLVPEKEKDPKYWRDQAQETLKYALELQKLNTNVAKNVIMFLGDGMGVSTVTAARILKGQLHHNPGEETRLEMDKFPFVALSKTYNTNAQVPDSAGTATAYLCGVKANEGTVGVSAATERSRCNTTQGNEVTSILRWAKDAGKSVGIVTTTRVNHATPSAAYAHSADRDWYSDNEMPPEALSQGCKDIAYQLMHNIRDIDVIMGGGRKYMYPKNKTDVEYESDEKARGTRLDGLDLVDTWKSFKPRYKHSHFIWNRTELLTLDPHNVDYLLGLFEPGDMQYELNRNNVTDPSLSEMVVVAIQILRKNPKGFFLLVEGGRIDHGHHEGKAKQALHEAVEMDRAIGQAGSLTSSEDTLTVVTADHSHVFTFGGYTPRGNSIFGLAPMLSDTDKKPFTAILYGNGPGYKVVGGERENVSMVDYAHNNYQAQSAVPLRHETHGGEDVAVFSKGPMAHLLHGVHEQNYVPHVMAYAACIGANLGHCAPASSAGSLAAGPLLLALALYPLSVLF

[12] = Trypanosoma cruzi growth suppression in host cells – NIH3T3 host cells, beta-gal luminescence, confirmation (AID 2044); assay type: functional, cell-based;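 further: intracellular parasites grown in NIH/3T3 mouse fibroblasts as host cells; luminescent beta-galactosidase reporter signal from transgenic T. cruzi replicating inside host cells; inhibitors lower the luminescence signal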
cells = assay type: functional, cell-based; settings: HEK-CNG
[13] = target: T3, Tyrosine-protein phosphatase non-receptor type 22 (Homo sapiens, UniProt Q9Y2R2); assay type: functional
T3 sequence (Q9Y2R2 whole entry): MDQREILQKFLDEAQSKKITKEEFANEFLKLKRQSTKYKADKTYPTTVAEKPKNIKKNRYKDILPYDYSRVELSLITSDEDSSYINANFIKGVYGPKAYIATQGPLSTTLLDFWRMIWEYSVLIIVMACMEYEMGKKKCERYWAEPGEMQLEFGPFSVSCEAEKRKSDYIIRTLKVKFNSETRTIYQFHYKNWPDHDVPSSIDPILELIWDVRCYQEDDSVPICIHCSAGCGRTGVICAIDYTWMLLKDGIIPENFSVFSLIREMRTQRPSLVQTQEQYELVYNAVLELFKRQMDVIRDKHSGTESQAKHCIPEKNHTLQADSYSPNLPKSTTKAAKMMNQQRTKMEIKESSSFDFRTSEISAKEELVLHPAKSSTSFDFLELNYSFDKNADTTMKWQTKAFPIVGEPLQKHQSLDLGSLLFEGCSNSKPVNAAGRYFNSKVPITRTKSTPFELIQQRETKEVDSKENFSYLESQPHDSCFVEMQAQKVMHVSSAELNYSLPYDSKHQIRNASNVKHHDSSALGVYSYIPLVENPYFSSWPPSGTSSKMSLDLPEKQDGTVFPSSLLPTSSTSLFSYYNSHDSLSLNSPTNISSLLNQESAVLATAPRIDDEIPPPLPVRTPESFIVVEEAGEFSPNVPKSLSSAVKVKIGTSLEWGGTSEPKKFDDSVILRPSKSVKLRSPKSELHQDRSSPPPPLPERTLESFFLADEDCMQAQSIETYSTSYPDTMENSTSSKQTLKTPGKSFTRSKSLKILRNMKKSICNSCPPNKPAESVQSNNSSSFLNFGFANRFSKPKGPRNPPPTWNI

[14] = NIH3T3 cell viability loss – ATP luminescence, mouse fibroblasts, counter-screen, dose response (AID 2010); assay type: functional, cell-based;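 further: cells exposed to compound for about 90 hours before reading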
[15] = target: T4, Tyrosine-protein phosphatase non-receptor type 7 (Homo sapiens, UniProt P35236); assay type: functional
T4 sequence (P35236 whole entry): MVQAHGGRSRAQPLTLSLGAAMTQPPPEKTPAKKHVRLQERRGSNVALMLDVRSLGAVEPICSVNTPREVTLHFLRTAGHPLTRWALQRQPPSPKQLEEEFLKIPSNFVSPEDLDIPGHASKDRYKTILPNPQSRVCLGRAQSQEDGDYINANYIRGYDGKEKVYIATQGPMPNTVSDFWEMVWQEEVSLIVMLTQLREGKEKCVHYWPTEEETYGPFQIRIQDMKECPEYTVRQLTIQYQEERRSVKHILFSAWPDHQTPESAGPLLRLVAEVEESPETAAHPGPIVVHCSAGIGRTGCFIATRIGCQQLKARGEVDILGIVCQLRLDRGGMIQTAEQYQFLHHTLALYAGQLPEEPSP

Galanin receptor type 3 = target: T5, Galanin receptor type 3 (Homo sapiens, UniProt O60755); test: Fluorescence-based cell-based primary high throughput dose response assay to identify antagonists of the Galanin Receptor 3 (GalR3).; assay type: functional
T5 sequence (O60755 whole entry): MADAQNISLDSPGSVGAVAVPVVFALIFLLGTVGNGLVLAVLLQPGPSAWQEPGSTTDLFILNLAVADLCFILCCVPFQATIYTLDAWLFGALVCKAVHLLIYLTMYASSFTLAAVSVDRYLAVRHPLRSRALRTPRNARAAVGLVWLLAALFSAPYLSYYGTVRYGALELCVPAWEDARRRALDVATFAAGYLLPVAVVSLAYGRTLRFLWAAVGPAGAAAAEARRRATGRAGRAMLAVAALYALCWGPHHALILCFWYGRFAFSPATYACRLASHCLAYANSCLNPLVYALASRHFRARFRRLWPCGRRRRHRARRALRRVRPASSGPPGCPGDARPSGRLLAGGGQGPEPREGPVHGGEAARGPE

[16] = target: T3, Tyrosine-protein phosphatase non-receptor type 22; assay type: functional; remark: listed apart in the source
SUMO E1/E2 = SUMO E1/E2 (Homo sapiens, UniProt P63279+Q9UBE0+Q9UBT2); test: SAR analysis of SUMOylation using HTRF in an in-Vitro dose response assay. [Related pubchem assays (depositor defined):AID2006, AID2011, AID2018, AID2069, AID2658]; assay type: functional
[17] = target: T6, Kappa-type opioid receptor (Homo sapiens, UniProt P41145); assay type: functional
Mu-type opioid receptor = Mu-type opioid receptor (Homo sapiens, UniProt P35372); test: HTS Image-Based Screen for Agonists of the MOR Receptor. [Related pubchem assays (depositor defined):AID1777, AID1785, AID1786, AID2133]; assay type: functional;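 further: imaging of beta-arrestin GFP recruitment into spots after receptor activation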
[18] = non-specific 3'UTR reporter inhibition in Clone20-Shn3RL – cell-based, Renilla luciferase, cherry-picked, counter-screen for Shn3 inhibitor project, dose response (AID 624133); assay type: functional
[19] = loss of viability in HepG2 cells – cell-based, CellTiter-Glo, cherry-picked, cytotoxicity control for Shn3 inhibitor project, dose response (AID 624134); assay type: functional
[20] = target: T7, Delta-type opioid receptor (Homo sapiens, UniProt P41143); test: HTS Image-Based Screen for Antagonists of the DOR Receptor. [Related pubchem assays (depositor defined):AID1777, AID1785, AID1786, AID2133]; assay type: functional
[21] = target: T6, Kappa-type opioid receptor; assay type: functional; remark: listed apart in the source
Ion channel NompC = Ion channel NompC (Danio rerio, UniProt Q7T1G6); test: Fluorescence counterscreen assay for TRPML3 agonists: dose response cell-based high-throughput screening assay to identify agonists of the transient receptor potential channel N1 (TRPN1). [Related pubchem assays: 1526, 1424, 1448 ]; assay type: functional
Mucolipin-3 = target: T8, Mucolipin-3 (Homo sapiens, UniProt Q8TDD5); test: Dose response cell-based high-throughput screening assay for agonists of the transient receptor potential channel ML3 (TRPML3). [Related pubchem assays: 1526, 1424, 1448 ]; assay type: functional
T8 sequence (Q8TDD5 whole entry): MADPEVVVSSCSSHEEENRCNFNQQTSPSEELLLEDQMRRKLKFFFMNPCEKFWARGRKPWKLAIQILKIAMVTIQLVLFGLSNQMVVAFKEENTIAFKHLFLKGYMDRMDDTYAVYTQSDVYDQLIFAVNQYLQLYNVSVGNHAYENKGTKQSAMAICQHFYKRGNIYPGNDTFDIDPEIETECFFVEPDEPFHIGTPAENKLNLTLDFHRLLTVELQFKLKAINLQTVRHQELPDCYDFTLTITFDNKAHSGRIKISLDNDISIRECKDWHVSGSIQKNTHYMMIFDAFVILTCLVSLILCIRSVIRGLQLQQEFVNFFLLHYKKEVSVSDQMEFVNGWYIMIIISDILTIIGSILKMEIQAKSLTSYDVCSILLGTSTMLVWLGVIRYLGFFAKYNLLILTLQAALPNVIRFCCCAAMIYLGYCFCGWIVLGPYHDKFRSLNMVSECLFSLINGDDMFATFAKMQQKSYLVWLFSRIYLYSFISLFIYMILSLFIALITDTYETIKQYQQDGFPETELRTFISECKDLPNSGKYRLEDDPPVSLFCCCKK

[22] = target: T7, Delta-type opioid receptor; test: HTS Image-Based Screen for Agonists of the DOR Receptor. [Related pubchem assays (depositor defined):AID1777, AID1786, AID2133]; assay type: functional
[23] = reduction of Shn3 3'UTR-driven luciferase in osteoblasts – cell-based, Clone20 osteoblasts, firefly luciferase, cherry-picked, dose response (AID 624132); assay type: functional;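 further: firefly luciferase luminescence from reporter carrying the Shn3 3'UTR in osteoblasts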

T1 sequence (P09923 whole entry): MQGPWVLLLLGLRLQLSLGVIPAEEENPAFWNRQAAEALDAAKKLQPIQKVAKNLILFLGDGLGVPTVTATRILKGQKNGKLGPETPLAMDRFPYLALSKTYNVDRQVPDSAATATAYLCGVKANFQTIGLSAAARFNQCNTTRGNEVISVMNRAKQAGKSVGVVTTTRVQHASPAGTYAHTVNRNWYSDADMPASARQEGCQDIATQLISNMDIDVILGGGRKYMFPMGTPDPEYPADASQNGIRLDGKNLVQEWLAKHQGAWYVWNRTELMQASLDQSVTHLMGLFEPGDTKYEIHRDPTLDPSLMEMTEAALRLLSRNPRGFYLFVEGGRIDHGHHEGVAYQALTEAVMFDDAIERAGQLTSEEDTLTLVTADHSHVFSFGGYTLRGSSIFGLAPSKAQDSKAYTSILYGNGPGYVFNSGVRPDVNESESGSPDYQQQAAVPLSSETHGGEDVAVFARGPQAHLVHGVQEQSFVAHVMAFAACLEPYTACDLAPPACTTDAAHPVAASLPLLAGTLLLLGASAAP
T6 sequence (P41145 whole entry): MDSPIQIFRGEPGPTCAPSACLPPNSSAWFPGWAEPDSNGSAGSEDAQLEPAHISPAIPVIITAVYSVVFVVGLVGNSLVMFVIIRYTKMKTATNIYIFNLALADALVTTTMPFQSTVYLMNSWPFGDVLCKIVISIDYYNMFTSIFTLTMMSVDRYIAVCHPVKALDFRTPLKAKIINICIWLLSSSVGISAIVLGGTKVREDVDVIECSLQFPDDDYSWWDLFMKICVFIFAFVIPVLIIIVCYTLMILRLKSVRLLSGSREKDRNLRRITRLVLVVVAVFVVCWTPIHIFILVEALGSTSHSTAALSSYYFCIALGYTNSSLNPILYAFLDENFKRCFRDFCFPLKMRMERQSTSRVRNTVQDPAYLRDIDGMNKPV
T7 sequence (P41143 whole entry): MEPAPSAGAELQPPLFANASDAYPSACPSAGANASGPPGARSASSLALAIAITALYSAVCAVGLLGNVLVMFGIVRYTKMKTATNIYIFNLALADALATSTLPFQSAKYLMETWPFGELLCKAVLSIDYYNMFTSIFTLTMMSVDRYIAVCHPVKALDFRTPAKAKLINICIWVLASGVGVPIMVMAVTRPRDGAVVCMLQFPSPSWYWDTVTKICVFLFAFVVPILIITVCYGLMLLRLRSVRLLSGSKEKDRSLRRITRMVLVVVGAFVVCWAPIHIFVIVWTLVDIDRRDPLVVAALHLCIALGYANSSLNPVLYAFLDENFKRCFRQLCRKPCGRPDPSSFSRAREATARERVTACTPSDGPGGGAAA
Chain of SUMO E1/E2 (Q9UBE0 whole entry): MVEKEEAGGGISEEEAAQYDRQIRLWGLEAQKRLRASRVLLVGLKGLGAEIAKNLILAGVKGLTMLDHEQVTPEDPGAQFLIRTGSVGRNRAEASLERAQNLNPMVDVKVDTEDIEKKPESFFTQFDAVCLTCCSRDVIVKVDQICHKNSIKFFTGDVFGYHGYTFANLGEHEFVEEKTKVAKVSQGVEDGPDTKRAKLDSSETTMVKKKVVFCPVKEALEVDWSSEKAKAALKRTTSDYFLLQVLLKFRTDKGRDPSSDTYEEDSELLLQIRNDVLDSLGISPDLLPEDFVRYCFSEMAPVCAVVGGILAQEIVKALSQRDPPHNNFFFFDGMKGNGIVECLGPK
Chain of SUMO E1/E2 (Q9UBT2 whole entry): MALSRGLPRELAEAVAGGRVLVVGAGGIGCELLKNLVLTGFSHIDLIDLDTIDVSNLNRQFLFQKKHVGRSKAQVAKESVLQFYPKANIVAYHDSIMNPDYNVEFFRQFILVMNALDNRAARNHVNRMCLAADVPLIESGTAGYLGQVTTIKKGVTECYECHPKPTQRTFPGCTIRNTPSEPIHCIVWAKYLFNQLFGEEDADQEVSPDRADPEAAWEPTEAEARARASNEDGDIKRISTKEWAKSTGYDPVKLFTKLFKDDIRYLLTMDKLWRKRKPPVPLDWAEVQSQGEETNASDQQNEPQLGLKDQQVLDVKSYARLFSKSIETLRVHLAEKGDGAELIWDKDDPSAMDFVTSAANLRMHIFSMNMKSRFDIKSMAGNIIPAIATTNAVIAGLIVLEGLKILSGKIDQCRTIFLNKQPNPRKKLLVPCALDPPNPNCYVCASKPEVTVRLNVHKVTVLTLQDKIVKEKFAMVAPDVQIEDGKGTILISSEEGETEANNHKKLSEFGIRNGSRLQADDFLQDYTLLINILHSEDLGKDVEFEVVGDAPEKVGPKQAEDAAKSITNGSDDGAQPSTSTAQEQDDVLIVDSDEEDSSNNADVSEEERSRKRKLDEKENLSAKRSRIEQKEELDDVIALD
Chain of SUMO E1/E2 (P63279 whole entry): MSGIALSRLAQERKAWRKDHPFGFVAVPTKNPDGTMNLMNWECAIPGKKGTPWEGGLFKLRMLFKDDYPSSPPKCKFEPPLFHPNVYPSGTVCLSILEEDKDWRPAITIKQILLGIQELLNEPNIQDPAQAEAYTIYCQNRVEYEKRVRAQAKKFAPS
Chain of Nucleotide-binding oligomerization domain-containing protein 2 (Q9HC29 whole entry, the tested form may be a part): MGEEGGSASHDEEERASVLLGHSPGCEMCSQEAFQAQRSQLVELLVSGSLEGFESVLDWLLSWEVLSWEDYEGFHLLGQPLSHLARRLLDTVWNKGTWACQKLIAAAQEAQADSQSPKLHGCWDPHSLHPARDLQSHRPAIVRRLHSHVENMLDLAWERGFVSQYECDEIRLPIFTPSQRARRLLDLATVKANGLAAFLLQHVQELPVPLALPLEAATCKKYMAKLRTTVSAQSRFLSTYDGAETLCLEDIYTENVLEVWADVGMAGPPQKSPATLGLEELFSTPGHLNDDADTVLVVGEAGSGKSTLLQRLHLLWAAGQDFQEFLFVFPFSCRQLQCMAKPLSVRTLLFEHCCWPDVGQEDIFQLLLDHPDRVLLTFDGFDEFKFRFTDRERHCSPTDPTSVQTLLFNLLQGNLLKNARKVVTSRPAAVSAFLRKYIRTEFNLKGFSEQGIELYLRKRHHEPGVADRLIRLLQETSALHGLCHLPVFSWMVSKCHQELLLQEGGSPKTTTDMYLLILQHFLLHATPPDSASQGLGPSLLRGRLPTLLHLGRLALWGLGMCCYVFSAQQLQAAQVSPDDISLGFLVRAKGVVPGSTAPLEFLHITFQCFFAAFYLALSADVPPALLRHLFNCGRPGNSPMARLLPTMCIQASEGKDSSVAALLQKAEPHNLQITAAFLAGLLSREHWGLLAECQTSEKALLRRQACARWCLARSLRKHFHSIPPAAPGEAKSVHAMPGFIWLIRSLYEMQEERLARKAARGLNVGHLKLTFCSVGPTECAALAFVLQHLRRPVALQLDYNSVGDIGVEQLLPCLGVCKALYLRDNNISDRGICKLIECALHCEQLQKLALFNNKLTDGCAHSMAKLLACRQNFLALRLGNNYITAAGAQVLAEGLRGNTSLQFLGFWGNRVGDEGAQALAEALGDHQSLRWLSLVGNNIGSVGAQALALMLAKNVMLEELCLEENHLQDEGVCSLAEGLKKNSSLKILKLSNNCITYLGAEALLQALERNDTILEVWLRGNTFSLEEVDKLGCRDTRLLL
Chain of Sphingosine 1-phosphate receptor 5 (Q9H228 whole entry): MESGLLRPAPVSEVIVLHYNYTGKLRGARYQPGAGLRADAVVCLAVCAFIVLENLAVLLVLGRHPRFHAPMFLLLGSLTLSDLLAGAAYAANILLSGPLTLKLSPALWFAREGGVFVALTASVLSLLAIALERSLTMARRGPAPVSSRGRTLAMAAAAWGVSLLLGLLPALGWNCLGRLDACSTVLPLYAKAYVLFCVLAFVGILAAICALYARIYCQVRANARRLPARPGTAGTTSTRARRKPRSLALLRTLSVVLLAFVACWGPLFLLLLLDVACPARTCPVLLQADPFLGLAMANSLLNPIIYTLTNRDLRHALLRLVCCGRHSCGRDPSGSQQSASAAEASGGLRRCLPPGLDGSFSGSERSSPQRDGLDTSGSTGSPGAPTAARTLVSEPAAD
Chain of Nucleotide-binding oligomerization domain-containing protein 1 (Q9Y239 whole entry, the tested form may be a part): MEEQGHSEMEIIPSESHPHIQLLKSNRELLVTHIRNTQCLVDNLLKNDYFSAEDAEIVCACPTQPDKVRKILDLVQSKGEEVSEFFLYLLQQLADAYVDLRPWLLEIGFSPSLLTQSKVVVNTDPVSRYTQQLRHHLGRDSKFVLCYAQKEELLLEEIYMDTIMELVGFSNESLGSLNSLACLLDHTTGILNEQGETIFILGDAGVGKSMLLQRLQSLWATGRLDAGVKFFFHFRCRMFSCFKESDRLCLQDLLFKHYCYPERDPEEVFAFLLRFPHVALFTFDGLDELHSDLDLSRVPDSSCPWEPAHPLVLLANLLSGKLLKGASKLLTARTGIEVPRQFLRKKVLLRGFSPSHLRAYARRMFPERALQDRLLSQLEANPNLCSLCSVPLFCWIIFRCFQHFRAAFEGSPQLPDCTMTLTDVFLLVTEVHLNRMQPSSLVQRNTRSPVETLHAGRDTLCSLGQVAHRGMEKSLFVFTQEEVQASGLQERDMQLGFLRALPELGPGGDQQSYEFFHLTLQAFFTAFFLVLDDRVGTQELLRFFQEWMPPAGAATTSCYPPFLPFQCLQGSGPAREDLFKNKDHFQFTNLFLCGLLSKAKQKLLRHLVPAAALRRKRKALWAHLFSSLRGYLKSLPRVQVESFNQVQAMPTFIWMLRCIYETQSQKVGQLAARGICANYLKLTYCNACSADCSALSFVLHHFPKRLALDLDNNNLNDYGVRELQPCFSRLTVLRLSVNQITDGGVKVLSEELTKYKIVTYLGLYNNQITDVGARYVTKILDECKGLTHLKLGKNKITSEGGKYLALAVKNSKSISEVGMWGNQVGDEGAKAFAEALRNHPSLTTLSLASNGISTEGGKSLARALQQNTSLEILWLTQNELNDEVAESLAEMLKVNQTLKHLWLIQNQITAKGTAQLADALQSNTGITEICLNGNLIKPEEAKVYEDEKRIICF

For CCc1cccc(CC)c1NC(=O)c1ccc(-c2cc(Cl)ccc2Cl)o1, the IC50 [1] was > 25 µM (inactive), the CC50 [2] was > 20 µM (inactive) and the IC50 [3] was > 25 µM (inactive). The IC50 [4] was > 25 µM (inactive) and the IC50 [5] was > 25 µM (inactive).
For Cc1cc(Br)ccc1SCC(=O)OC/C(O)=C(\C#N)c1nc2ccccc2[nH]1, the EC50 [6] was 27.5 µM (active), the IC50 (HEK293) was > 20 µM (inactive) and the IC50 [7] was > 20 µM (inactive). For the same compound, the IC50 [8] was > 100 µM (inactive), the IC50 [9] was > 20 µM (inactive) and the EC50 [10] was 13.4 µM (active). The IC50 (Tumor necrosis factor) was > 20 µM (inactive) and the EC50 [11] was 24.1 µM (active).
In the case of COC(=O)C1CCN(Cc2ccc(OCCCN3CCN(c4ccc([N+](=O)[O-])cc4)CC3)cc2)CC1, the EC50 [12] is reported as 0.257 µM (active), the EC50 (cells) is reported as > 29.9 µM (inactive) and the IC50 [13] is reported as > 79.4 µM (inactive). For the same compound, the EC50 [14] was > 30 µM (not active), the IC50 [15] was > 79.4 µM (inactive) and the IC50 (Galanin receptor type 3) was 1.33 µM (active). For the same compound, the IC50 [16] was > 79.4 µM (inactive).
For C/C(=N\OCc1nc2ccccc2c(=O)n1/N=C/c1ccc(Cl)cc1)c1ccccc1, the IC50 (SUMO E1/E2) was > 100 µM (inactive).
With COc1ccc(CCN2C(=O)CS/C2=N\c2ccc(C(C)C)cc2)cc1OC the EC50 [17] was 6.83 µM, the EC50 (Mu-type opioid receptor) was > 32 µM (inactive) and the AC50 [18] was 7.07 µM (active). The AC50 [19] was 5.37 µM (active), the IC50 [20] was > 32 µM (inactive) and the EC50 [21] was 5.88 µM. The EC50 (Ion channel NompC) was > 29.9 µM (not active), the EC50 (Mucolipin-3) was > 29.9 µM (not active) and the EC50 [22] was > 32 µM (inactive). For the same compound, the AC50 [23] was 4.49 µM (active).
